Source: patent publication US20260022098A1, “BULLEYACONITINE A DERIVATIVE WITH ANALGESIC ACTIVITY, AND PREPARATION METHOD AND APPLICATION THEREOF” (priority 2023, published 2026)

Legend:
Kunming mice [1] = test: Acute toxicity / median lethal dose (LD50) determination, subcutaneous injection; type: in vivo; set-up: key to Acute toxicity: if death occurred, (+) represented as positive; if no death occurred, (−) represented as negative; settings: mice administered 20 mg/kg subcutaneously, presence of death within 24 h
Method: (§1) The experimental animals were Kunming mice (male:female=1:1), weighed 22+2 g, which were provided by Chengdu dossy experimental animals Co., ltd., China. The mice were kept in the animal room of the School of Life Science and Engineering, Southwest Jiaotong University, where the animal room was set at a temperature of 23±2° C., a humidity of […] and a photoperiod of 16:8 h (L:D). Before the experiment, the mice were freely fed for 2-3 days with water and feed to adapt to the new environment. Then, the mice were treated by water and food fasting for 12 h. 10 animals were allocated to each group to ensure that there are at least 6 sets of valid data in each group. The animal experiments were carried out in strict accordance with the national regulations on the management of experimental animals.
(§2) The compounds prepared in the examples provided herein (test sample set) and bulleyaconitine A (positive control set) were all dissolved with 0.1 mol/L HCl according to a molar ratio of 1:1, and then diluted with physiological saline to a concentration to be determined. Blank control was physiological saline containing 0.1 mol/L HCl. The animals in the control groups were subjected to the same treatment as those in experimental groups except that samples to be test were replaced with physiological saline.
(2) Median Lethal Dose (LD50) Determination
The sample to be tested was dissolved with 0.1 mol/L HCl according to the amount of the substance ratio of 1:1, and diluted with physiological saline according to the required concentration. 10 mice in each group were randomly selected, half of which were male and half of which were female, and were placed in independent cages. Each mouse was injected subcutaneously with different sample solutions to be tested according to a dose of 0.1 mL/10 g body weight. In the preliminary toxicity experiment, the measured concentration was 20 mg/kg, and then based on the survival rate of the experimental animals in the preliminary experiment, the sample to be tested was set to at least 5 groups with different concentration dose according to the proportional series. The survival rate of mice within 24 h was recorded. The obtained dose-survival rate data was input into the SPSS software (version 17.2), and the LD50 of the sample was calculated according to the Probit regression method.

Kunming mice [2] = test: Analgesic activity by acetic acid-induced writhing method (writhing inhibition rate, ED50); type: in vivo; settings: Mus musculus, sc, read-out: Analgesia rate (%) ± SEM
Method: as §1, §2
(1) Determination of Analgesic Activity Through an Acetic Acid-Induced Writhing Method
10 mice were randomly selected, male:female=1:1, were placed in independent cages. Each mouse was injected subcutaneously with the sample solution mentioned above at a dose of 0.1 mL/10 g body weight. After 15 min, a 0.7% acetic acid solution was intraperitoneally injected. A number of writhing reactions in each mouse within 15 minutes was recorded. The group that the mice were injected with physiological saline subcutaneously was the blank group; the group that the mice were injected with the sample to be tested was the experimental group; and the group that the mice were injected with bulleyaconitine A was the positive group. The analgesic activity was represented by a percentage of the reduced number of writhing compared to the blank group (writhing inhibition rate), which were specifically as follows: writhing inhibition rate (analgesic activity)=(average number of writhing times in the blank group-average number of writhing times in the experimental group)/average number of writhing times in the blank group×100%.
Median Effective Dose (ED50) Determination
The sample to be tested was dissolved with 0.1 mol/L HCl according to the amount of the substance ratio of 1:1, and diluted with physiological saline according to the proportional series to obtain at least 5 groups with different dose concentrations. The writhing inhibition rate of each dose group was tested according to the acetic acid-induced writhing method mentioned above. The obtained dose-writhing inhibition data was entered into the statistical product and service solutions (SPSS) software (version 17.2), and the ED50 of the sample to be tested was calculated through the Probit regression method.

SMILES | Acute toxicity (Kunming mice [1]) | inhibition in vivo at 0.05 mg/kg (Kunming mice [2]) [%]
CCN1C[C@]2(COC)CC[C@H](OC)[C@@]34C5C[C@]6(OC(=O)c7ccc(Cl)s7)[C@@H](OC)C[C@@](OC(C)=O)(C5[C@H]6OC(=O)c5ccc(OC)cc5)C([C@H](OC)C23)[C@@H]14 (stereo partly shown) [Compound 22] | − | 6.27 ± 2.3
CCN1C[C@]2(COC)CC[C@H](OC)[C@@]34C5C[C@]6(OC(=O)C7CCOCC7)[C@@H](OC)C[C@@](OC(C)=O)(C5[C@H]6OC(=O)c5ccc(OC)cc5)C([C@H](OC)C23)[C@@H]14 (stereo partly shown) [Compound 25] | − | 23 ± 0.8
CCN1C[C@]2(COC)CC[C@H](OC)[C@@]34C5C[C@]6(OC(=O)C7CCOCC7)[C@@H](OC)C[C@@](OC)(C5[C@H]6OC(=O)C5CCOCC5)C([C@H](OC)C23)[C@@H]14 (stereo partly shown) [Compound 26] | − | 30.5 ± 1
CCN1C[C@]2(COC)CC[C@H](OC)[C@@]34C5C[C@]6(OC(=O)c7cccnc7)[C@@H](OC)C[C@@](OC)(C5[C@H]6OC(=O)c5cccnc5)C([C@H](OC)C23)[C@@H]14 (stereo partly shown) [Compound 30] | − | 31.1 ± 2.4
CCN1C[C@]2(COC)CC[C@H](OC)[C@@]34C5C[C@]6(OC(=O)c7ccc(OC)cc7)[C@@H](OC)C[C@@](OC)(C5[C@H]6OC(=O)c5ccc(OC)cc5)C([C@H](OC)C23)[C@@H]14 (stereo partly shown) [Compound 31] | − | 17 ± 2.2
CCN1C[C@]2(COC)CC[C@H](OC)[C@@]34C5C[C@]6(OC(=O)c7ccco7)[C@@H](OC)C[C@@](OC)(C5[C@H]6OC(=O)c5ccco5)C([C@H](OC)C23)[C@@H]14 (stereo partly shown) [Compound 32] | − | 37.3 ± 1.4
CCN1C[C@]2(COC)CC[C@H](OC)[C@@]34C5C[C@]6(OC(=O)c7ccco7)[C@@H](OC)C[C@@](OC)(C5[C@H]6OC(=O)c5ccc(OC)cc5)C([C@H](OC)C23)[C@@H]14 (stereo partly shown) [Compound 33] | − | 30.2 ± 2.6
CCN1C[C@]2(COC)CC[C@H](OC)[C@@]34C5C[C@]6(OC(=O)C7CCCCC7)[C@@H](OC)C[C@@](OC)(C5[C@H]6OC(=O)C5CCCCC5)C([C@H](OC)C23)[C@@H]14 (stereo partly shown) [Compound 34] | − | 37 ± 1.4
CCOc1ccc(C(=O)O[C@@H]2C3C4C[C@]2(OC(=O)c2ccc(OCC)cc2)[C@@H](OC)C[C@]3(OCC)C2[C@H](OC)C3[C@@]5(COC)CC[C@H](OC)[C@@]43[C@@H]2N(CC)C5)cc1 (stereo partly shown) [Compound 35] | − | 0
CCOc1ccc(C(=O)O[C@]23CC4C([C@H]2OC(=O)c2ccc(OC)cc2)[C@](OCC)(C[C@@H]3OC)C2[C@H](OC)C3[C@@]5(COC)CC[C@H](OC)[C@@]43[C@@H]2N(CC)C5)cc1 (stereo partly shown) [Compound 36] | − | 13.6 ± 2.5
CCOc1ccc(C(=O)O[C@]23CC4C([C@H]2OC(=O)c2ccc(OC)cc2)[C@](OC(C)=O)(C[C@@H]3OC)C2[C@H](OC)C3[C@@]5(COC)CC[C@H](OC)[C@@]43[C@@H]2N(CC)C5)cc1 (stereo partly shown) [Compound 37] | − | 21.2 ± 1.7
CCN1C[C@]2(COC)CC[C@H](OC)[C@@]34C5C[C@]6(OC(=O)c7ccc([N+](=O)[O-])cc7)[C@@H](OC)C[C@@](OC(C)=O)(C5[C@H]6OC(=O)c5ccc(OC)cc5)C([C@H](OC)C23)[C@@H]14 (stereo partly shown) [Compound 40] | − | 31.9 ± 1.8
CCO[C@]12C[C@H](OC)[C@@]3(OC(C)=O)CC(C1[C@H]3OC(C)=O)[C@]13C4[C@@H](OC)C2[C@H]1N(CC)C[C@]4(COC)CC[C@@H]3OC (stereo partly shown) [Compound 41] | − | 18.5 ± 2.1
CCO[C@]12C[C@H](OC)[C@@]3(OC(C)=O)CC(C1[C@H]3OC(=O)c1ccc(OC)cc1)[C@]13C4[C@@H](OC)C2[C@H]1N(CC)C[C@]4(COC)CC[C@@H]3OC (stereo partly shown) [Compound 42] | − | 23 ± 1.7
